Assays:
[1] = system: anti-WT1235 peptide IgG antibody; experiment: ELISA using variant WT1 antigen peptide as immobilized antigen to assay anti-WT1235 peptide IgG antibody; type: binding, human; settings: serum of thymic carcinoma patient given WT1235 peptide; increase in titer detected; FIG. 19
Method: WK235-243 (SEQ ID NO: 62) and WT237-243 (SEQ ID NO: 63) were synthesized by GL Biochem (Shanghai) Corporation Ltd. WT1-frg2 (SEQ ID NO: 61) was prepared in the same way as in the aforementioned WT1-frg3 (SEQ ID NO: 57).
The measurement of the antibody titer using WT1-frg2 (SEQ ID NO: 61) was performed in the same way as in the aforementioned WT1-frg3 (SEQ ID NO: 57). The measurement of the antibody titer using WK235-243 (SEQ ID NO: 62) or WT237-243 (SEQ ID NO: 63) was performed in the same way as in the aforementioned WT332-347 (SEQ ID NO: 58), etc.

[2] = system: recurrent malignant glioblastoma (GBM) patients; experiment: Anti-WT1-235 peptide IgG antibody titer (ELISA) in serum of GBM patients given WT1235 peptide vaccine; type: in vivo, human; settings: 2 months and 3 months after the start of administration compared with before, ELISA antigen WT1-235 peptide, FIG. 1
Method: 1-1 WT1 peptide immunotherapy was carried out in 72 GBM patients using WT1235 peptide (WT1-CTL peptide (modified mp235-243) (SEQ ID NO: 3)) as a WT1 peptide vaccine. […]
(§1) To a 96-well reaction plate supplied with Peptide Coating Kit (Takara Bio Inc.) having amino groups attached to the bottom surface of the wells, a solution (4 μg/mL) of the WT1-235 peptide dissolved in a reaction buffer supplied with Peptide Coating Kit was added at 50 μL/well. […] The reaction was terminated with 1 N HCl, and the absorbance at 450 nm was then measured using a microplate reader (CORONA […] MTP-310Lab).
The comparison between two groups was conducted using the Mann-Whitney test. […] The anti-WT1 antigen peptide antibody titer was measured using the serum negative for the anti-WT1 antigen peptide antibody (patient's serum before the start of WT1 peptide immunotherapy) and the average value plus twice the standard deviation=0.045. […]

[3] = system: malignant thymic carcinoma patient; experiment: Anti-WT1332 / anti-WT1235 IgG antibody titer (ELISA) in serum of a patient given WT1235 peptide vaccine; type: in vivo, human
Excerpt: (§2) From one malignant glioblastoma patient given WT1332 peptide vaccine (SEQ ID NO: 6), a serum sample was obtained before the start of administration of the vaccine, at 4 weeks after the start of administration, and at 1 year and 2 months after the start of administration. From one malignant thymic carcinoma patient given WT1235 peptide vaccine (WT1-CTL peptide (modified mp235-243) (SEQ ID NO: 3)) alone, a serum sample was obtained as a negative control in the same way as above. Each serum sample was stored at −20° C. until assay.
The GST-WT1 frag1 protein solution (10 ng/μL) was added at 100 μL/well to a 96-well plate for ELISA. The plate was left overnight at 37° C. to immobilize the antigen thereon. After washing with 0.05% TBST, blocking was performed by shaking at room temperature for 2 hours using a blocking buffer (1% gelatin/0.05% TBST). Then, the serum diluted 100-fold with 0.05% TBST was added thereto at 100 μL/well and reacted overnight at 4° C. The plate was reacted with a peroxidase-labeled goat anti-human IgG antibody (Santa Cruz Biotechnology, Inc.) as a secondary antibody at room temperature for 2 hours. Then, a color was developed using a TMB kit (KPL, Kirkegaard & Perry Laboratories, Inc.). The reaction was terminated with 1 N HCl, and the absorbance at 450 nm was then measured using a microplate reader (CORONA […] MTP-32). […]

[4] = system: anti-WT1332 peptide IgG antibody; experiment: ELISA using variant WT1 antigen peptide as immobilized antigen to assay anti-WT1332 peptide IgG antibody; type: binding, human; settings: serum diluted 100-fold; titer increased in WT1332-immunized patient, not in unimmunized patient; FIG. 18
Method: A vector expressing WT1-frg3 (SEQ ID NO: 57) as a GST-tagged protein was constructed using a pGEX-5X-3 vector (GE Healthcare Japan Corp.). The prepared vector was transferred to competent cells DH5α by heat shock. The vector-transferred E. coli was cultured. At the point in time when the OD600 value became 0.4 to 0.6, isopropyl-β-D-thiogalactoside (IPTG) was added at a final concentration of 1 mM to the medium to induce protein expression. The cells were further cultured for 3 hours. The bacterial cells were collected by centrifugation and then lysed in an SDS sample buffer (0.125 M Tris-HCl, 0.1 M DTT, 4% SDS, 10% sucrose, and bromophenol blue, pH 6.8). This lysate was fractionated on the basis of molecular weights by SDS-PAGE using a disc-type electrophoresis apparatus NA-1800 (Nihon Eido Corp.). A portion of each fraction thus collected by SDS-PAGE was stained with CBB, and a fraction containing WT1 was recovered. The purified protein was dissolved in an immobilizing buffer for ELISA (10 mM NaCO3, 30 mM NaHCO3, and 0.02% NaN3, pH 9.6) and used as an antigen for ELISA.
The GST-WT1 frag1 protein solution (10 ng/μL) was added at 100 μL/well to a 96-well plate for ELISA. The plate was left overnight at 37° C. to immobilize the antigen thereon. After washing with 0.05% TBST, blocking was performed by shaking at room temperature for 2 hours using a blocking buffer (1% gelatin/0.05% TBST). Then, the serum diluted 100-fold with 0.05% TBST was added thereto at 100 μL/well and reacted overnight at 4° C. […] The reaction was terminated with 1 N HCl, and the absorbance at 450 nm was then measured using a microplate reader (CORONA […] MTP-32).
as §1, with “groups (—NH2)” for “groups”, “WT1” for “WT1-235”

[5] = system: malignant glioblastoma patient; experiment: Anti-WT1332 IgG antibody titer (ELISA) in serum of a patient given WT1332 peptide vaccine; type: in vivo, human; settings: one patient immunized with WT1332 peptide, FIG. 18
Excerpt: as §2
[…] The plate was left overnight at 37° C. to immobilize the antigen thereon. After washing with 0.05% TBST, blocking was performed by shaking at room temperature for 2 hours using a blocking buffer (1% gelatin/0.05% TBST). […] The reaction was terminated with 1 N HCl, and the absorbance at 450 nm was then measured using a microplate reader (CORONA […] MTP-32).
as §1, with “groups (—NH2)” for “groups”, “WT1” for “WT1-235”

## CMTWNQMNK [WK235-243]
[1]
  ability as ELISA antigen to measure anti-WT1235 IgG antibody level in patient's serum: could measure an anti-WT1235 IgG antibody level in patient's serum

## CYTWNQMNL (Montanide ISA51 emulsion) [WT1235 peptide vaccine, emulsion with Montanide ISA51]
[2]
  anti-WT1-235 peptide IgG antibody titer after the start of administration: significantly increased
[3]; negative control: one patient immunized with WT1235 peptide alone (unimmunized with WT1332 peptide), ELISA antigen WT1-frg3
  anti-WT1332 IgG antibody titer after immunization: not increased
[3]; one thymic carcinoma patient, serum at 4 weeks and 7 months after start of administration, ELISA antigen WT1-frg2, FIG. 19
  anti-WT1235 IgG antibody titer: increase in anti-WT1235 IgG antibody titer was detected

## KRYFKLS [WT332-338]
[4]
  ability as ELISA antigen to measure anti-WT1332 IgG antibody level in patient's serum: could measure an anti-WT1332 IgG antibody level in patient's serum

## KRYFKLSHLQMHSRKH [WT332-347]
[4]
  ability as ELISA antigen to measure anti-WT1332 IgG antibody level in patient's serum: could measure an anti-WT1332 IgG antibody level in patient's serum

## KRYFKLSHLQMHSRKH [WT1332 peptide]
[5]; ELISA antigen WT1-frg3
  anti-WT1332 IgG antibody titer after immunization: increased
[5]; ELISA antigen WT332-347, WT334-342 or WT332-338
  anti-WT1332 IgG antibody titer after immunization: increased

## TWNQMNL [WT237-243]
[1]
  ability as ELISA antigen to measure anti-WT1235 IgG antibody level in patient's serum: could measure an anti-WT1235 IgG antibody level in patient's serum

## YFKLSHLQM [WT334-342]
[4]
  ability as ELISA antigen to measure anti-WT1332 IgG antibody level in patient's serum: could measure an anti-WT1332 IgG antibody level in patient's serum

Source: patent US20160084841A1, “Method for Predicting Clinical Effect of Immunotherapy” (INTERNATIONAL INSTITUTE OF CANCER IMMUNOLOGY, INC., priority 2013, published 2016)
